Test results published in US12064426B2, “Selective inhibitors of ROCK1 and ROCK2 protein kinases and uses thereof” (GENOSCO Inc., priority 2021, dated 2024).

Experiments:
[1] = target: T1, Recombinant ROCK2 (amino acids 5-554) (Homo sapiens, UniProt O75116); test: ROCK inhibition assay, LANCE Ultra TR-FRET kinase assay (ROCK2); format: biochemical; details: 4 μM ATP, 50 nM ULight-CREBtide substrate
T1 construct: ROCK2 (amino acids 5-554); by word order, ROCK2 from SignalChem
Procedure, shortened: (§1)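 LANCE Ultra TR-FRET kinase assay with recombinant ROCK1 (aa 1-477) or ROCK2 (aa 5-554), 50 nM ULight-CREBtide and ATP at 1 μM (ROCK1) or 4 μM (ROCK2) in HEPES pH 7.5 with MgCl2, 1 h at room temperature. EDTA stop with Eu anti-phospho-CREB Ser133 antibody; 665/615 nm read gives IC50.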

[2] = target: T2, Recombinant ROCK1 (amino acids 1-477) (Homo sapiens, UniProt Q13464); test: ROCK inhibition assay, LANCE Ultra TR-FRET kinase assay (ROCK1); format: biochemical; details: 1 μM ATP, 50 nM ULight-CREBtide substrate
T2 construct: Recombinant ROCK1 (amino acids 1-477); by word order, ROCK1 from Carna Biosciences
Procedure, shortened: as §1

[3] = tested on: ROCK1/2 in A7r5 cells (pMLC2 levels); test: Inhibition of ROCK1/2 in A7r5 cells, cell-based ELISA of phospho-myosin light chain (pMLC2, Thr18/Ser19); details: Rattus norvegicus, 1.5 h, treated with test compounds for 90 minutes, read-out: pMLC2 (cellular EC50)
Method: Inhibition of ROCK1/2 in A7r5 cells was measured through cell-based ELISA assay. Rat aortic smooth muscle cell line A7r5 cells were maintained and treated in DMEM medium with 10% fetal bovine serum. Cells were seeded with 5,000 cells/well in 96 well plates for 24 hours and subsequently treated with test compounds for 90 minutes. Cells were then fixed and processed according to the In-Cell ELISA Colrimetric Detection Kit manual (Thermo Scientific). Cellular phospho-myosin light chain (pMLC2, Thr18/Ser19) levels were determined after treatment with DMSO control or a test compound using the In-Cell ELISA kit.
The resulting data was applied to the following formula ‘[1-(compound/DMSO)]×100%’ to calculate the percent inhibition rate. pMLC2 data obtained from 9 points 3-fold serial dilution of compounds were applied to the nonlinear regression curve fit function of the GraphPad Prism software to calculate the cellular EC50 values.

T2 sequence (Q13464 1-477): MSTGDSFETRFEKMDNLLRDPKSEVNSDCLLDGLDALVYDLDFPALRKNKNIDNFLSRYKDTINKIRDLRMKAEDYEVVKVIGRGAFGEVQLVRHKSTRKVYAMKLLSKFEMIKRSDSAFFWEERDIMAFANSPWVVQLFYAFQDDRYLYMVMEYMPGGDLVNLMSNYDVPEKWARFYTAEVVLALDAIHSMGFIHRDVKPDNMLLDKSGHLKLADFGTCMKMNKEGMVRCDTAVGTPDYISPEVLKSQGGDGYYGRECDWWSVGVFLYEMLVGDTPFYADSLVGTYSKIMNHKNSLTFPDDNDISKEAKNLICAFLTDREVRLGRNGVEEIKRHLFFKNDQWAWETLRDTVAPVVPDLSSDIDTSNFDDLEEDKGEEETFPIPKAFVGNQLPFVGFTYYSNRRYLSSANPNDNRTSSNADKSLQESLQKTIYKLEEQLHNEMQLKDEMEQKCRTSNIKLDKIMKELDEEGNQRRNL
T1 sequence (O75116 5-554): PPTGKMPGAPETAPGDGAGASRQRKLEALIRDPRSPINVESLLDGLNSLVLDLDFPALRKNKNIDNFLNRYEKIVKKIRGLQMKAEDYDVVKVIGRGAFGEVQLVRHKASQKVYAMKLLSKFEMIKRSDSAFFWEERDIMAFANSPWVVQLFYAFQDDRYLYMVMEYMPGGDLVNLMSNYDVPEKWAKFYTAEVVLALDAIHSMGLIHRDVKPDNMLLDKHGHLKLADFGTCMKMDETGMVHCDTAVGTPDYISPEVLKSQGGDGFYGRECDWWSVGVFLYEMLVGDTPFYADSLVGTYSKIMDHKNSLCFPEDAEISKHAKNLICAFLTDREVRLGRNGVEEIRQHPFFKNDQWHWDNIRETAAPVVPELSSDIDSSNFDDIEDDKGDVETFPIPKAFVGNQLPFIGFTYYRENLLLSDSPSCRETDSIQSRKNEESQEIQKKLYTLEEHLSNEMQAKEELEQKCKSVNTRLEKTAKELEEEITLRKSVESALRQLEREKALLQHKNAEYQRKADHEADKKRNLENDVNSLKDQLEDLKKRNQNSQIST

| SMILES | IC50 [1] [µM] | IC50 [2] [µM] | EC50 [3] [µM] |
| --- | --- | --- | --- |
| CNC(=O)c1cccc(Cn2ccc3cc(-c4ccnc(N)c4)ccc3c2=O)c1 [Compound 326] | < 0.01 | 0.011 to 0.1 | 0.101 to 0.5 |
| Cn1nccc1-c1ccc2c(=O)n(Cc3cccc(C(=O)NC4CCN(CC(F)(F)F)CC4)c3)ccc2c1 [Compound 108] | < 0.01 | 0.011 to 0.1 | 0.101 to 0.5 |
| CNC(=O)c1cccc([C@@H](C)n2cnc3cc(-c4cn[nH]c4Cl)ccc3c2=O)c1 [Compound 466] | < 0.01 | 0.011 to 0.1 | < 0.1 |
| CNC(=O)c1cc(F)cc(Cn2ccc3cc(-c4ccnn4C)ccc3c2=O)c1 [Compound 323] | 0.01 to 0.1 | 0.101 to 0.5 | 0.101 to 0.5 |
| Cc1nocc1-c1ccc2c(=O)n(Cc3cccc(C(=O)NC4COC4)c3)ccc2c1 [Compound 146] | 0.01 to 0.1 | 0.101 to 0.5 | 0.501 to 1 |
| Cc1nocc1-c1ccc2c(=O)n(Cc3cccc(C(=O)NCC4CCN(CC(F)F)CC4)c3)ccc2c1 [Compound 82] | 0.01 to 0.1 | 0.101 to 0.5 | < 0.1 |
| COc1cccc(Cn2ccc3cc(-c4ccnc(N)c4)ccc3c2=O)c1 [Compound 24] | 0.01 to 0.1 | > 0.501 | 0.101 to 0.5 |
| Nc1cc(-c2ccc3c(=O)n(Cc4cccc(C(=O)NCc5ccccc5CO)c4)ccc3c2)ccn1 [Compound 184] | 0.01 to 0.1 | 0.101 to 0.5 | < 0.1 |
| CNC(=O)c1cccc(Cn2ccc3cc(-c4cn[nH]c4C(F)(F)F)ncc3c2=O)c1 [Compound 233] | < 0.01 | 0.011 to 0.1 | 0.101 to 0.5 |
| CNC(=O)c1cc(F)cc(Cn2ccc3cc(-c4conc4C)ccc3c2=O)c1 [Compound 315] | < 0.01 | 0.011 to 0.1 | 0.501 to 1 |
| CNC(=O)c1cc(F)cc(Cn2ccc3cc(-c4cn[nH]c4C(F)(F)F)ccc3c2=O)c1 [Compound 281] | < 0.01 | 0.011 to 0.1 | 0.101 to 0.5 |
| CNC(=O)c1cccc(Cn2ccc3cc(-c4conc4C)ccc3c2=O)c1 [Compound 277] | < 0.01 | 0.101 to 0.5 | 0.501 to 1 |
| Cc1n[nH]cc1-c1ccc2c(=O)n(Cc3cccc(C(=O)NCCc4ccccn4)c3)ccc2c1 [Compound 31] | < 0.01 | < 0.01 | < 0.1 |
| Cn1nccc1-c1ccc2c(=O)n(Cc3cccc(O)c3)ccc2c1 [Compound 12] | < 0.01 | 0.011 to 0.1 | 0.101 to 0.5 |
| Cc1nocc1-c1ccc2c(=O)n(Cc3cccc(C(=O)N[C@H]4CC[C@H](O)CC4)c3)ccc2c1 [Compound 75] | 0.01 to 0.1 | 0.101 to 0.5 | 0.101 to 0.5 |
| Cn1nccc1-c1ccc2c(=O)n(Cc3cccc(C(=O)NC4CCN(CC(F)F)CC4)c3)ccc2c1 [Compound 107] | < 0.01 | 0.011 to 0.1 | 0.101 to 0.5 |
| Cc1nocc1-c1ccc2c(=O)n(Cc3cccc(C(=O)NC4CCOCC4)c3)ccc2c1 [Compound 77] | < 0.01 | 0.011 to 0.1 | 0.101 to 0.5 |
| CN(C)Cc1ccccc1Cn1ccc2cc(-c3ccnc(N)c3)ccc2c1=O [Compound 25] | < 0.01 | 0.011 to 0.1 | 0.101 to 0.5 |
| Cc1nocc1-c1ccc2c(=O)n(Cc3cccc(O)c3)ccc2c1 [Compound 10] | < 0.01 | 0.011 to 0.1 | < 0.1 |
| CNC(=O)c1cccc(Cn2ccc3cc(-c4ccnn4C)ccc3c2=O)c1 [Compound 320] | 0.01 to 0.1 | 0.101 to 0.5 | > 1 |
| Nc1cc(-c2ccc3c(=O)n(Cc4cccc(C(=O)NCCc5ccccn5)c4)cnc3c2)ccn1 [Compound 437] | < 0.01 | 0.011 to 0.1 | 0.101 to 0.5 |
| Nc1cc(-c2ccc3c(=O)n(Cc4cccc(C(=O)NCCc5ccccn5)c4)ccc3c2)ccn1 [Compound 186] | < 0.01 | 0.011 to 0.1 | < 0.1 |

| SMILES | IC50 [1] [µM] | IC50 [2] [µM] | EC50 [3] [µM] |
| --- | --- | --- | --- |
| CNC(=O)c1cccc(Cn2ccc3cc(-c4cn[nH]c4C(F)(F)F)ccc3c2=O)c1 [Compound 280] | < 0.01 | 0.011 to 0.1 | 0.501 to 1 |
| Cn1ccc(NC(=O)c2cccc(Cn3ccc4cc(-c5ccnc(N)c5)ccc4c3=O)c2)n1 [Compound 200] | < 0.01 | 0.011 to 0.1 | < 0.1 |
| Cc1nocc1-c1ccc2c(=O)n(Cc3cccc(C(=O)NCC4CCN(C5CC5)CC4)c3)ccc2c1 [Compound 80] | 0.01 to 0.1 | 0.101 to 0.5 |  |
| Cc1nocc1-c1ccc2c(=O)n(Cc3cccc(C(=O)Nc4ccn(C)n4)c3)ccc2c1 [Compound 89] | 0.1 to 0.5 | > 0.501 |  |
| Nc1cc(-c2ccc3c(=O)n(Cc4cccc(C(=O)NC5CCCC5)c4)ccc3c2)ccn1 [Compound 198] | 0.1 to 0.5 | > 0.501 |  |
| Nc1cc(-c2ccc3c(=O)n(Cc4cccc(C(=O)Nc5ccc6c(c5)COCC6)c4)ccc3c2)ccn1 [Compound 197] | 0.01 to 0.1 | 0.011 to 0.1 |  |
| CNC(=O)c1cccc(Cn2ccc3cc(-c4cc[nH]c4C)ncc3c2=O)c1 [Compound 231, N-methyl-3-((6-(2-methyl-1H-pyrrol-3-yl)-1-oxo-2,7-naphthyridin-2(1H)-yl)methyl)benzamide] | < 0.01 | 0.011 to 0.1 |  |
| Cn1nccc1-c1ccc2c(=O)n(Cc3cccc(C(=O)N[C@H]4C[C@H](O)C4)c3)cnc2c1 [Compound 428] | < 0.01 | 0.011 to 0.1 |  |
| CNC(=O)c1cccc(Cn2cc(CCN(C)C)c3cc(-c4cn[nH]c4C(F)(F)F)ccc3c2=O)c1 [Compound 548] | < 0.01 | < 0.01 |  |
| Nc1cc(-c2ccc3c(=O)n(Cc4cccc(C(=O)NCc5ccc6ccccc6c5)c4)ccc3c2)ccn1 [Compound 182] | 0.1 to 0.5 | > 0.501 |  |
| CNC(=O)c1cc(F)cc(Cn2ccc3cc(-c4ccnn4C)ncc3c2=O)c1 [Compound 245] | 0.01 to 0.1 | 0.101 to 0.5 |  |
| Cc1nocc1-c1ccc2c(=O)n([C@H](C)c3cccc(C(=O)N(C)C)c3)cnc2c1 [Compound 470] | > 0.5 | > 0.501 |  |
| COc1cccc(Cn2cnc3cc(-c4c[nH]nc4C(F)F)ccc3c2=O)c1 [Compound 359] | < 0.01 | 0.011 to 0.1 |  |
| Cc1nocc1-c1ccc2c(=O)n([C@H](C)c3cccc(C(=O)NCCN4CCOCC4)c3)cnc2c1 [Compound 474] | < 0.01 | 0.011 to 0.1 |  |
| CNC(=O)c1cccc(Cn2ccc3cc(-c4cnoc4)ccc3c2=O)c1 [Compound 300] | > 0.5 | > 0.501 |  |
| NCC(c1cccc(Cl)c1)n1cnc2cc(-c3ccnc(N)c3)ccc2c1=O (centres unmarked) [Compound 493] | < 0.01 | 0.011 to 0.1 |  |
| CN1CCC(NC(=O)c2cccc(Cn3cnc4cc(-c5cn[nH]c5Cl)ccc4c3=O)c2)CC1 [Compound 408] | < 0.01 | < 0.01 |  |
| CC(O)c1cn(Cc2cccc(C(=O)NCCc3ccccn3)c2)c(=O)c2ccc(-c3c[nH]nc3Cl)cc12 (centres unmarked) [Compound 543] | < 0.01 | < 0.01 |  |
| Cc1nocc1-c1ccc2c(=O)n(Cc3cccc(C(=O)Nc4ccc5c(c4)CCN(C4CC4)C5)c3)ccc2c1 [Compound 99] | < 0.01 | < 0.01 |  |
| N#Cc1cccc(C(CN)n2cnc3cc(-c4cn[nH]c4C(F)(F)F)ccc3c2=O)c1 (centres unmarked) [Compound 503] | 0.1 to 0.5 | > 0.501 |  |
| Cc1nocc1-c1ccc2c(=O)n(Cc3cccc(C(=O)Nc4ccc5c(c4)CN(C)CC5)c3)ccc2c1 [Compound 101] | < 0.01 | < 0.01 |  |
